From PubChem BioAssay (NCI) come the findings set out here.

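Cultured in 96-well plates, cells were exposed to test compound for 48 hours across five concentrations. GI50 is the concentration that inhibits growth by half. The concentration for full growth arrest is given as TGI.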 Where only a bound is given, the exact number is not on record here.

Some test systems named below: SR leukemia; SN12C renal; KM12 colon; PC-3 prostate; HCT-116 colon; U251 CNS; TK-10 renal; SK-MEL-28 melanoma; UACC-62 melanoma; HOP-92 NSCLC.
Test in all cases: growth of human tumour cells (NCI), 48 h

As for `Cc1[nH]c(C(=O)Nc2cccc(OC3CCNCC3)c2)c(Cl)c1Cl`, the GI50 in the test on SR leukemia is 2020 nM; in the test on SN12C renal, 2800 nM; in the test on KM12 colon it was 1930 nM; in the test on PC-3 prostate, 1690 nM; in the test with HCT-116 colon, 1650 nM; in the test with U251 CNS, 1930 nM. Moreover, the GI50 was 1940 nM in the test with TK-10 renal, 1640 nM in the test with SK-MEL-28 melanoma, 1810 nM in the test on UACC-62 melanoma and 1320 nM with HOP-92 NSCLC. The TGI with SR leukemia was determined as 5.09 µM; with SN12C renal, 10.1 µM; with KM12 colon, 3.73 µM; with PC-3 prostate, 3.36 µM; with HCT-116 colon it was 3.24 µM; in the test with U251 CNS, 4.19 µM. Besides, the TGI in the test with TK-10 renal was 3.7 µM; in the test on SK-MEL-28 melanoma it was 3.07 µM; in the test with UACC-62 melanoma, 3.45 µM; in the test with HOP-92 NSCLC, 4 µM.

As for `COc1ccc(-c2nc3sccn3c2-c2ccnc(NCCNS(=O)(=O)c3ccc(C(F)(F)F)cc3)n2)cc1`, the GI50 in the test on SR leukemia was 972 nM; in the test with SN12C renal it was 688 nM; with KM12 colon, 1360 nM; with PC-3 prostate, 303 nM; with HCT-116 colon, 729 nM; with U251 CNS, 4450 nM. The GI50 in the test on TK-10 renal is 2870 nM; with SK-MEL-28 melanoma, 3680 nM; with UACC-62 melanoma it was 485 nM; in the test with HOP-92 NSCLC it was 153 nM. In addition, the TGI is over 100 µM with SR leukemia; 8.38 µM in the test with SN12C renal; 36.2 µM with KM12 colon; 3.34 µM in the test with PC-3 prostate; 4.61 µM in the test with HCT-116 colon; over 100 µM in the test with U251 CNS. Besides, the TGI in the test with TK-10 renal is over 100 µM; with SK-MEL-28 melanoma, 55.5 µM; in the test on UACC-62 melanoma, 3.4 µM; in the test with HOP-92 NSCLC, 2.51 µM.

Consider `COc1ccc(N=Nc2ccc(O)c(=O)cc2)cc1`, for which the GI50 with SR leukemia was 3790 nM; in the test on SN12C renal, 2820 nM; in the test on KM12 colon, 3660 nM; in the test with PC-3 prostate, 4820 nM; in the test on HCT-116 colon, 2580 nM; with U251 CNS it was 3200 nM. Besides, the GI50 is 5800 nM in the test on TK-10 renal, 3060 nM in the test with SK-MEL-28 melanoma, 2110 nM in the test with UACC-62 melanoma and 2660 nM in the test on HOP-92 NSCLC. Besides, the TGI is over 100 µM in the test on SR leukemia; over 100 µM with SN12C renal; over 100 µM with KM12 colon; over 100 µM in the test with PC-3 prostate; 15.4 µM in the test with HCT-116 colon; over 100 µM in the test with U251 CNS. The TGI was over 100 µM with TK-10 renal, 31.6 µM in the test with SK-MEL-28 melanoma, 5.12 µM in the test on UACC-62 melanoma and over 100 µM in the test with HOP-92 NSCLC.

For the compound `O=C(/C=C(/C=C/c1cccc2[nH]ccc12)OB(F)F)/C=C/c1cccc2[nH]ccc12`, the GI50 in the test with SR leukemia is 460 nM; with SN12C renal it was 687 nM; with KM12 colon it was 949 nM; in the test with PC-3 prostate, 815 nM; with HCT-116 colon, 277 nM; in the test with U251 CNS, 469 nM. Besides, the GI50 with TK-10 renal was 1930 nM; in the test on SK-MEL-28 melanoma, 1040 nM; with UACC-62 melanoma, 833 nM; in the test on HOP-92 NSCLC, 1860 nM. The TGI in the test with SR leukemia was over 100 µM; in the test on SN12C renal it was 5.45 µM; in the test with KM12 colon, 2.54 µM; with PC-3 prostate, 3.41 µM; with HCT-116 colon, 0.951 µM; with U251 CNS, 1.83 µM. Further, the TGI in the test on TK-10 renal was 7.42 µM; with SK-MEL-28 melanoma it was 2.73 µM; in the test on UACC-62 melanoma it was 2.97 µM; with HOP-92 NSCLC, 5.15 µM.

Consider `CC(C)C[C@H](NC(=O)[C@@H](Cc1ccccc1)n1ccc(Nc2ccccc2)cc1=O)B(O)O`, for which the GI50 is 95.5 nM in the test on SR leukemia; 730 nM with SN12C renal; 375 nM in the test with KM12 colon; 2250 nM with PC-3 prostate; 257 nM in the test with HCT-116 colon; 417 nM in the test on U251 CNS. Moreover, the GI50 in the test with TK-10 renal was 269 nM; in the test on SK-MEL-28 melanoma it was 349 nM; in the test with UACC-62 melanoma it was 333 nM; in the test with HOP-92 NSCLC, 386 nM. Besides, the TGI in the test on SR leukemia turned out to be 2.02 µM; in the test with SN12C renal it was 6.94 µM; in the test on KM12 colon, 1.51 µM; in the test on PC-3 prostate, 19.6 µM; with HCT-116 colon it was 1.23 µM; in the test on U251 CNS, 12.2 µM. Moreover, the TGI came to 0.98 µM in the test on TK-10 renal, 2.98 µM with SK-MEL-28 melanoma, 1.41 µM with UACC-62 melanoma and 2.45 µM in the test on HOP-92 NSCLC.

Take `c1cc[n+](Cc2c3ccccc3cc3c2ccc2ccccc23)cc1`: the GI50 in the test on SR leukemia is 2640 nM; in the test on SN12C renal, 506 nM; in the test with KM12 colon, 3090 nM; in the test with PC-3 prostate, 2800 nM; in the test with HCT-116 colon it was 4770 nM; in the test with U251 CNS it was 1100 nM. The GI50 is 8200 nM in the test on TK-10 renal, 2110 nM with SK-MEL-28 melanoma, 1920 nM with UACC-62 melanoma and 1560 nM in the test on HOP-92 NSCLC. The TGI in the test on SR leukemia came out at 11.6 µM; in the test with SN12C renal, 4.73 µM; with KM12 colon, 11.8 µM; in the test with PC-3 prostate, 14.4 µM; with HCT-116 colon it was 17.1 µM; in the test on U251 CNS, 6.37 µM. The TGI in the test on TK-10 renal was 28.2 µM; with SK-MEL-28 melanoma it was 5.5 µM; in the test with UACC-62 melanoma, 3.93 µM; with HOP-92 NSCLC, 6.97 µM.

On to `Cn1c2c(c3ccccc31)CCN1C[C@@H]3CCCC[C@H]3C[C@@H]21`, for which the GI50 in the test on SR leukemia is 2960 nM; with SN12C renal, 3820 nM; with KM12 colon it was 2970 nM; in the test with PC-3 prostate it was 3310 nM; with HCT-116 colon it was 3190 nM; with U251 CNS, 2510 nM. Moreover, the GI50 is 3010 nM in the test with TK-10 renal, 6030 nM in the test on SK-MEL-28 melanoma, 4190 nM in the test with UACC-62 melanoma and 3440 nM in the test with HOP-92 NSCLC. In addition, the TGI was over 25.8 µM in the test on SR leukemia; over 100 µM in the test with SN12C renal; 9.97 µM with KM12 colon; over 100 µM in the test on PC-3 prostate; over 31.2 µM with HCT-116 colon; over 100 µM in the test on U251 CNS. Moreover, the TGI in the test on TK-10 renal was 23.2 µM; in the test with SK-MEL-28 melanoma, over 100 µM; in the test on UACC-62 melanoma it was over 100 µM; with HOP-92 NSCLC it was 34.2 µM.

Regarding `CC(=O)OC1C(O)C(C)OC(OC2C(OC(=O)C3CCC4C(C3)OC3(CC(OC(=O)/C=C/c5ccccc5)C(C)CO3)C43CO3)OC(C)C(O)C2OC(C)=O)C1O` (stereo not given), the TGI in the test with SR leukemia is over 2.5 µM; in the test with SN12C renal, 0.125 µM; in the test on KM12 colon it was 0.0562 µM; in the test on PC-3 prostate, 0.0442 µM; with HCT-116 colon, 0.0785 µM; in the test on U251 CNS, 0.0493 µM. The TGI with TK-10 renal was 0.225 µM; in the test on SK-MEL-28 melanoma, 0.0305 µM; with UACC-62 melanoma, 0.0382 µM; with HOP-92 NSCLC it was 0.0344 µM.

Turning to `Cc1cc(O)ccc1C1(c2ccc(O)cc2C)OC(=O)c2ccccc21`, the GI50 was 30300 nM with SR leukemia; 19500 nM in the test with SN12C renal; 18800 nM in the test with KM12 colon; 18000 nM in the test with PC-3 prostate; 18600 nM in the test with HCT-116 colon; 19900 nM in the test on U251 CNS. For the same compound, the GI50 in the test with TK-10 renal was 17000 nM; in the test on SK-MEL-28 melanoma, 17300 nM; in the test on UACC-62 melanoma, 18000 nM; with HOP-92 NSCLC, 15400 nM. Also, the TGI is over 100 µM in the test with SR leukemia; 39.9 µM in the test on SN12C renal; 37.7 µM in the test with KM12 colon; 35.6 µM in the test with PC-3 prostate; 33.7 µM with HCT-116 colon; 36.6 µM in the test with U251 CNS. The TGI with TK-10 renal came out at 30.8 µM; in the test on SK-MEL-28 melanoma, 35.4 µM; with UACC-62 melanoma, 35.9 µM; with HOP-92 NSCLC, 29.7 µM.

For `CC(=O)Oc1ccc(C2OC(c3ccc4ccccc4c3OC(C)=O)=NN2C(C)=O)c(OC(C)=O)c1` (stereo not given), the GI50 with SR leukemia is 198 nM; in the test on SN12C renal, 512 nM; with KM12 colon, 536 nM; in the test on PC-3 prostate, 448 nM; with HCT-116 colon it was 328 nM; in the test with U251 CNS, 316 nM. The GI50 is 774 nM with TK-10 renal, 559 nM in the test with SK-MEL-28 melanoma, 331 nM with UACC-62 melanoma and 252 nM in the test on HOP-92 NSCLC. Further, the TGI with SR leukemia was over 34.5 µM; with SN12C renal, over 70.6 µM; in the test on KM12 colon it was over 57.6 µM; with PC-3 prostate, over 59.6 µM; in the test on HCT-116 colon, over 40.2 µM; in the test on U251 CNS it was 30.4 µM. Further, the TGI in the test with TK-10 renal is over 53.8 µM; in the test with SK-MEL-28 melanoma, over 53.9 µM; in the test on UACC-62 melanoma it was 9.04 µM; in the test on HOP-92 NSCLC it was over 29.5 µM.

With `NS(=O)(=O)c1ccc(N=Nc2c(O)[nH]c3ccc(C(=O)NCCCn4ccnc4)cc23)cc1`, the GI50 in the test with SR leukemia, in the test with SN12C renal, with KM12 colon, with PC-3 prostate, with HCT-116 colon and in the test with U251 CNS was over 25000 nM each time. The GI50 in the test on TK-10 renal, in the test with SK-MEL-28 melanoma, in the test on UACC-62 melanoma and in the test with HOP-92 NSCLC was over 25000 nM each time. Moreover, the TGI in the test on SR leukemia, in the test with SN12C renal, with KM12 colon, with PC-3 prostate, in the test on HCT-116 colon and with U251 CNS was over 25 µM throughout. For the same compound, the TGI with TK-10 renal, with SK-MEL-28 melanoma, in the test on UACC-62 melanoma and in the test with HOP-92 NSCLC was over 25 µM in each case.
